Test results: PubChem BioAssay (NCI)
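Interpolation was linear, between the two tested concentrations surrounding the appropriate level; five concentrations were tested over 48 hours in 96-well plates. TGI marks complete inhibition of growth.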

Legend:
Assay in all cases: NCI anticancer screen, dose series, 48 h
786-0 renal = tested on: 786-0 renal
A498 renal = tested on: A498 renal
A549 NSCLC = tested on: A549 NSCLC
ACHN renal = tested on: ACHN renal
CAKI-1 renal = tested on: CAKI-1 renal
CCRF-CEM leukemia = tested on: CCRF-CEM leukemia
DLD-1 colon = tested on: DLD-1 colon
EKVX NSCLC = tested on: EKVX NSCLC
HCC-2998 colon = tested on: HCC-2998 colon
HL-60(TB) leukemia = tested on: HL-60(TB) leukemia
HOP-62 NSCLC = tested on: HOP-62 NSCLC
HOP-92 NSCLC = tested on: HOP-92 NSCLC
HT29 colon = tested on: HT29 colon
IGROV1 ovarian = tested on: IGROV1 ovarian
K-562 leukemia = tested on: K-562 leukemia
KM12 colon = tested on: KM12 colon
KM20L2 colon = tested on: KM20L2 colon
LXFL 529 NSCLC = tested on: LXFL 529 NSCLC
M14 melanoma = tested on: M14 melanoma
MALME-3M melanoma = tested on: MALME-3M melanoma
MOLT-4 leukemia = tested on: MOLT-4 leukemia
NCI-H226 lung = tested on: NCI-H226 lung
NCI-H23 lung = tested on: NCI-H23 lung
NCI-H460 lung = tested on: NCI-H460 lung
NCI-H522 lung = tested on: NCI-H522 lung
OVCAR-3 ovarian = tested on: OVCAR-3 ovarian
OVCAR-4 ovarian = tested on: OVCAR-4 ovarian
OVCAR-5 ovarian = tested on: OVCAR-5 ovarian
OVCAR-8 ovarian = tested on: OVCAR-8 ovarian
RPMI-8226 leukemia = tested on: RPMI-8226 leukemia
SF-268 CNS = tested on: SF-268 CNS
SF-295 CNS = tested on: SF-295 CNS
SK-MEL-2 melanoma = tested on: SK-MEL-2 melanoma
SK-MEL-28 melanoma = tested on: SK-MEL-28 melanoma
SK-MEL-5 melanoma = tested on: SK-MEL-5 melanoma
SK-OV-3 ovarian = tested on: SK-OV-3 ovarian
SN12C renal = tested on: SN12C renal
SNB-19 CNS = tested on: SNB-19 CNS
SNB-75 CNS = tested on: SNB-75 CNS
SNB-78 CNS = tested on: SNB-78 CNS
SR leukemia = tested on: SR leukemia
SW-620 colon = tested on: SW-620 colon
TK-10 renal = tested on: TK-10 renal
U251 CNS = tested on: U251 CNS
UACC-257 melanoma = tested on: UACC-257 melanoma
UO-31 renal = tested on: UO-31 renal
BT-549 breast = tested on: BT-549 breast
COLO 205 colon = tested on: COLO 205 colon
DU-145 prostate = tested on: DU-145 prostate
HCT-116 colon = tested on: HCT-116 colon
HCT-15 colon = tested on: HCT-15 colon
HS 578T breast = tested on: HS 578T breast
LOX IMVI melanoma = tested on: LOX IMVI melanoma
MCF7 breast = tested on: MCF7 breast
MDA-MB-231 breast = tested on: MDA-MB-231 breast
MDA-MB-435 = tested on: MDA-MB-435
MDA-N = tested on: MDA-N
NCI/ADR-RES ovarian = tested on: NCI/ADR-RES ovarian
PC-3 prostate = tested on: PC-3 prostate
RXF 393 renal = tested on: RXF 393 renal
SF-539 CNS = tested on: SF-539 CNS
T-47D breast = tested on: T-47D breast
UACC-62 melanoma = tested on: UACC-62 melanoma

In the case of `COc1cccc([C@@]2(O)c3c(ccc(O)c3OC)[C@H]2OC)c1OC`, the TGI (786-0 renal) is reported as 30.3 µM, the TGI (A498 renal) is reported as > 100 µM and the TGI (A549 NSCLC) is reported as > 100 µM. The TGI (ACHN renal) was > 100 µM, the TGI (CAKI-1 renal) was 78.4 µM and the TGI (CCRF-CEM leukemia) was > 100 µM. For the same compound, the TGI (DLD-1 colon) was > 100 µM, the TGI (EKVX NSCLC) was > 100 µM and the TGI (HCC-2998 colon) was > 100 µM. The TGI (HL-60(TB) leukemia) was 57.3 µM, the TGI (HOP-62 NSCLC) was > 100 µM and the TGI (HOP-92 NSCLC) was > 100 µM. For the same compound, the TGI (HT29 colon) was > 100 µM, the TGI (IGROV1 ovarian) was > 100 µM and the TGI (K-562 leukemia) was > 100 µM. For the same compound, the TGI (KM12 colon) was > 100 µM, the TGI (KM20L2 colon) was > 100 µM and the TGI (LXFL 529 NSCLC) was 62.1 µM. For the same compound, the TGI (M14 melanoma) was > 100 µM, the TGI (MALME-3M melanoma) was > 100 µM and the TGI (MOLT-4 leukemia) was > 100 µM. For the same compound, the TGI (NCI-H226 lung) was > 100 µM, the TGI (NCI-H23 lung) was > 100 µM and the TGI (NCI-H460 lung) was > 100 µM. For the same compound, the TGI (NCI-H522 lung) was 52.2 µM, the TGI (OVCAR-3 ovarian) was > 100 µM and the TGI (OVCAR-4 ovarian) was > 100 µM. The TGI (OVCAR-5 ovarian) was > 100 µM, the TGI (OVCAR-8 ovarian) was > 100 µM and the TGI (RPMI-8226 leukemia) was > 100 µM. The TGI (SF-268 CNS) was > 100 µM, the TGI (SF-295 CNS) was > 100 µM and the TGI (SK-MEL-2 melanoma) was > 100 µM. For the same compound, the TGI (SK-MEL-28 melanoma) was > 100 µM, the TGI (SK-MEL-5 melanoma) was > 100 µM and the TGI (SK-OV-3 ovarian) was > 100 µM. For the same compound, the TGI (SN12C renal) was > 100 µM, the TGI (SNB-19 CNS) was > 100 µM and the TGI (SNB-75 CNS) was > 100 µM. For the same compound, the TGI (SNB-78 CNS) was > 100 µM, the TGI (SR leukemia) was > 100 µM and the TGI (SW-620 colon) was > 100 µM. The TGI (TK-10 renal) was 93.6 µM, the TGI (U251 CNS) was > 100 µM and the TGI (UACC-257 melanoma) was > 100 µM. The TGI (UO-31 renal) was > 100 µM.
With `Cn1c(=O)cc(NNc2ccccc2)[nH]c1=O` the TGI (786-0 renal) was 30 µM, the TGI (A498 renal) was > 100 µM and the TGI (A549 NSCLC) was > 100 µM. The TGI (ACHN renal) was > 100 µM, the TGI (BT-549 breast) was > 100 µM and the TGI (CAKI-1 renal) was 29.2 µM. The TGI (CCRF-CEM leukemia) was 90.4 µM, the TGI (COLO 205 colon) was > 100 µM and the TGI (DU-145 prostate) was > 100 µM. For the same compound, the TGI (EKVX NSCLC) was > 100 µM, the TGI (HCC-2998 colon) was > 100 µM and the TGI (HCT-116 colon) was 31.6 µM. For the same compound, the TGI (HCT-15 colon) was 30.1 µM, the TGI (HL-60(TB) leukemia) was 56.8 µM and the TGI (HOP-62 NSCLC) was > 100 µM. The TGI (HOP-92 NSCLC) was 44.7 µM, the TGI (HS 578T breast) was > 100 µM and the TGI (HT29 colon) was 29.1 µM. For the same compound, the TGI (IGROV1 ovarian) was 85.7 µM, the TGI (K-562 leukemia) was > 100 µM and the TGI (KM12 colon) was 49.9 µM. The TGI (LOX IMVI melanoma) was 28.3 µM, the TGI (M14 melanoma) was 89.9 µM and the TGI (MALME-3M melanoma) was 75.9 µM. The TGI (MCF7 breast) was 12.8 µM, the TGI (MDA-MB-231 breast) was 33.5 µM and the TGI (MDA-MB-435) was 75 µM. For the same compound, the TGI (MDA-N) was > 100 µM, the TGI (MOLT-4 leukemia) was > 100 µM and the TGI (NCI-H226 lung) was > 100 µM. For the same compound, the TGI (NCI-H23 lung) was > 100 µM, the TGI (NCI-H460 lung) was > 100 µM and the TGI (NCI-H522 lung) was 28.9 µM. For the same compound, the TGI (NCI/ADR-RES ovarian) was > 100 µM, the TGI (OVCAR-3 ovarian) was 30.4 µM and the TGI (OVCAR-4 ovarian) was > 100 µM. For the same compound, the TGI (OVCAR-5 ovarian) was > 100 µM, the TGI (OVCAR-8 ovarian) was 42.1 µM and the TGI (PC-3 prostate) was > 100 µM. For the same compound, the TGI (RPMI-8226 leukemia) was 48.1 µM, the TGI (RXF 393 renal) was 33.6 µM and the TGI (SF-268 CNS) was > 100 µM. For the same compound, the TGI (SF-295 CNS) was > 100 µM, the TGI (SF-539 CNS) was > 100 µM and the TGI (SK-MEL-2 melanoma) was > 100 µM. The TGI (SK-MEL-28 melanoma) was 60.4 µM, the TGI (SK-MEL-5 melanoma) was > 100 µM and the TGI (SK-OV-3 ovarian) was > 100 µM. For the same compound, the TGI (SN12C renal) was > 100 µM, the TGI (SNB-19 CNS) was > 100 µM and the TGI (SNB-75 CNS) was > 100 µM. It also gave a TGI (SR leukemia) of 57.8 µM, a TGI (SW-620 colon) of 31.3 µM and a TGI (T-47D breast) of 38.9 µM. For the same compound, the TGI (TK-10 renal) was 65.9 µM, the TGI (U251 CNS) was 31.7 µM and the TGI (UACC-257 melanoma) was > 100 µM. The TGI (UACC-62 melanoma) was > 100 µM and the TGI (UO-31 renal) was > 100 µM.
In the case of `COc1ccc(C(=O)/C=C2\C(=O)Nc3ccc(Br)cc32)cc1`, the TGI (786-0 renal) is reported as 3.74 µM, the TGI (A498 renal) is reported as 33.7 µM and the TGI (A549 NSCLC) is reported as > 51.2 µM. For the same compound, the TGI (ACHN renal) was 3.4 µM, the TGI (BT-549 breast) was 13.8 µM and the TGI (CAKI-1 renal) was 21.4 µM. The TGI (CCRF-CEM leukemia) was 32.2 µM, the TGI (COLO 205 colon) was 4.56 µM and the TGI (DU-145 prostate) was 19.9 µM. For the same compound, the TGI (EKVX NSCLC) was 29.1 µM, the TGI (HCC-2998 colon) was 12.3 µM and the TGI (HCT-116 colon) was 8.7 µM. The TGI (HCT-15 colon) was 4.86 µM, the TGI (HL-60(TB) leukemia) was 6.37 µM and the TGI (HOP-62 NSCLC) was 37.9 µM. The TGI (HOP-92 NSCLC) was 8.39 µM, the TGI (HS 578T breast) was 50.3 µM and the TGI (HT29 colon) was 3.28 µM. For the same compound, the TGI (IGROV1 ovarian) was 11.4 µM, the TGI (K-562 leukemia) was > 100 µM and the TGI (KM12 colon) was 9.16 µM. The TGI (LOX IMVI melanoma) was 4.27 µM, the TGI (M14 melanoma) was > 48.3 µM and the TGI (MALME-3M melanoma) was 34.6 µM. For the same compound, the TGI (MCF7 breast) was 21.1 µM, the TGI (MDA-MB-231 breast) was 15.5 µM and the TGI (MDA-MB-435) was 27.8 µM. For the same compound, the TGI (MDA-N) was 16.7 µM, the TGI (MOLT-4 leukemia) was > 21.9 µM and the TGI (NCI-H226 lung) was 28.6 µM. The TGI (NCI-H23 lung) was 16.2 µM, the TGI (NCI-H460 lung) was 26.7 µM and the TGI (NCI-H522 lung) was 13.4 µM. For the same compound, the TGI (NCI/ADR-RES ovarian) was 3.95 µM, the TGI (OVCAR-3 ovarian) was 11.2 µM and the TGI (OVCAR-4 ovarian) was 32.1 µM. The TGI (OVCAR-5 ovarian) was 46.1 µM, the TGI (OVCAR-8 ovarian) was 4.7 µM and the TGI (PC-3 prostate) was 23.1 µM. The TGI (RPMI-8226 leukemia) was > 23.8 µM, the TGI (RXF 393 renal) was 5.08 µM and the TGI (SF-268 CNS) was 47.4 µM. The TGI (SF-295 CNS) was 30.6 µM, the TGI (SF-539 CNS) was 25.7 µM and the TGI (SK-MEL-2 melanoma) was 37.4 µM. For the same compound, the TGI (SK-MEL-28 melanoma) was 29 µM, the TGI (SK-MEL-5 melanoma) was > 50.4 µM and the TGI (SK-OV-3 ovarian) was 29.6 µM. For the same compound, the TGI (SN12C renal) was 6.62 µM, the TGI (SNB-19 CNS) was 36.2 µM and the TGI (SNB-75 CNS) was 27.8 µM. The TGI (SR leukemia) was > 21.2 µM, the TGI (SW-620 colon) was 7.83 µM and the TGI (T-47D breast) was 26.3 µM. The TGI (TK-10 renal) was 3.32 µM, the TGI (U251 CNS) was 34.2 µM and the TGI (UACC-257 melanoma) was 25.9 µM. The TGI (UACC-62 melanoma) was 29 µM and the TGI (UO-31 renal) was 5.05 µM.
